Test results published in PubChem BioAssay (NCI).
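1) Cells in 96-well plates. 2) Compound, 48 h, 5 concentrations. 3) Linear interpolation between surrounding doses. 4) Unreached endpoint = highest concentration. TGI is the concentration that stops growth completely.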

Legend:
Assay in all cases: NCI tumour cell line growth inhibition, 48 h
[1] = tested on: 786-0 renal
[2] = tested on: A498 renal
[3] = tested on: A549 NSCLC
[4] = tested on: ACHN renal
[5] = tested on: BT-549 breast
[6] = tested on: CCRF-CEM leukemia
[7] = tested on: COLO 205 colon
[8] = tested on: DU-145 prostate
[9] = tested on: EKVX NSCLC
[10] = tested on: HCT-116 colon
[11] = tested on: HCT-15 colon
[12] = tested on: HL-60(TB) leukemia
[13] = tested on: HOP-62 NSCLC
[14] = tested on: HS 578T breast
[15] = tested on: HT29 colon
[16] = tested on: IGROV1 ovarian
[17] = tested on: K-562 leukemia
[18] = tested on: KM12 colon
[19] = tested on: LOX IMVI melanoma
[20] = tested on: M14 melanoma
[21] = tested on: MALME-3M melanoma
[22] = tested on: MCF7 breast
[23] = tested on: MDA-MB-231 breast
[24] = tested on: MDA-MB-435
[25] = tested on: MDA-N
[26] = tested on: MOLT-4 leukemia
[27] = tested on: NCI-H226 lung
[28] = tested on: NCI-H23 lung
[29] = tested on: NCI-H460 lung
[30] = tested on: NCI-H522 lung
[31] = tested on: NCI/ADR-RES ovarian
[32] = tested on: OVCAR-3 ovarian
[33] = tested on: OVCAR-4 ovarian
[34] = tested on: OVCAR-5 ovarian
[35] = tested on: OVCAR-8 ovarian
[36] = tested on: PC-3 prostate
[37] = tested on: RPMI-8226 leukemia
[38] = tested on: RXF 393 renal
[39] = tested on: SF-268 CNS
[40] = tested on: SF-295 CNS
[41] = tested on: SF-539 CNS
[42] = tested on: SK-MEL-2 melanoma
[43] = tested on: SK-MEL-28 melanoma
[44] = tested on: SK-OV-3 ovarian
[45] = tested on: SN12C renal
[46] = tested on: SNB-19 CNS
[47] = tested on: SNB-75 CNS
[48] = tested on: SR leukemia
[49] = tested on: SW-620 colon
[50] = tested on: TK-10 renal
[51] = tested on: U251 CNS
[52] = tested on: UACC-257 melanoma
[53] = tested on: UACC-62 melanoma
[54] = tested on: UO-31 renal
[55] = tested on: CAKI-1 renal
[56] = tested on: HOP-92 NSCLC
[57] = tested on: SK-MEL-5 melanoma
[58] = tested on: T-47D breast
[59] = tested on: HCC-2998 colon

CCCNC(=O)c1cc(NC(=O)c2cc(NC(=O)/C=C/c3ccccc3)c(OC)c(OC)c2)c(OC)c(OC)c1
TGI [1]: 18.6 µM | TGI [2]: 30.8 µM | TGI [3]: 23.9 µM | TGI [4]: 36.8 µM | TGI [5]: 53.4 µM | TGI [6]: > 100 µM | TGI [7]: > 100 µM | TGI [8]: > 100 µM | TGI [9]: 54.1 µM | TGI [10]: > 100 µM | TGI [11]: > 100 µM | TGI [12]: > 100 µM | TGI [13]: 19.4 µM | TGI [14]: 6.18 µM | TGI [15]: 66.5 µM | TGI [16]: 31.7 µM | TGI [17]: > 100 µM | TGI [18]: 41.8 µM | TGI [19]: 8.35 µM | TGI [20]: > 100 µM | TGI [21]: 8.74 µM | TGI [22]: 28.5 µM | TGI [23]: 6.27 µM | TGI [24]: 66.5 µM | TGI [25]: > 100 µM | TGI [26]: > 100 µM | TGI [27]: 0.17 µM | TGI [28]: > 100 µM | TGI [29]: 82.5 µM | TGI [30]: 23.1 µM | TGI [31]: 56 µM | TGI [32]: 17.9 µM | TGI [33]: 8.05 µM | TGI [34]: 57.1 µM | TGI [35]: 17 µM | TGI [36]: 33.5 µM | TGI [37]: > 100 µM | TGI [38]: 8.31 µM | TGI [39]: 8.68 µM | TGI [40]: 11.2 µM | TGI [41]: 20.4 µM | TGI [42]: 31.2 µM | TGI [43]: 67.7 µM | TGI [44]: 25.1 µM | TGI [45]: 0.879 µM | TGI [46]: 21.6 µM | TGI [47]: 7.76 µM | TGI [48]: > 100 µM | TGI [49]: > 100 µM | TGI [50]: 40.1 µM | TGI [51]: 13.9 µM | TGI [52]: 52.2 µM | TGI [53]: 0.597 µM | TGI [54]: 20.7 µM

CCCCCCCCCCCC(=O)Oc1c(Cl)cc(Cl)c(OC(=O)C(=O)Oc2c(Cl)cc(Cl)c(OC(=O)CCCCCCCCCCC)c2Cl)c1Cl
TGI [1]: > 100 µM | TGI [3]: > 100 µM | TGI [4]: > 100 µM | TGI [5]: > 100 µM | TGI [55]: > 100 µM | TGI [6]: > 100 µM | TGI [7]: > 100 µM | TGI [8]: > 100 µM | TGI [9]: > 100 µM | TGI [10]: > 100 µM | TGI [13]: > 100 µM | TGI [56]: > 100 µM | TGI [14]: > 100 µM | TGI [15]: > 100 µM | TGI [16]: > 100 µM | TGI [18]: > 100 µM | TGI [19]: > 100 µM | TGI [21]: > 100 µM | TGI [22]: > 100 µM | TGI [24]: > 100 µM | TGI [25]: > 100 µM | TGI [26]: > 100 µM | TGI [28]: > 100 µM | TGI [29]: > 100 µM | TGI [30]: > 100 µM | TGI [31]: > 100 µM | TGI [33]: > 100 µM | TGI [34]: > 100 µM | TGI [35]: > 100 µM | TGI [36]: > 100 µM | TGI [37]: > 100 µM | TGI [38]: > 100 µM | TGI [39]: > 100 µM | TGI [40]: > 100 µM | TGI [43]: > 100 µM | TGI [57]: > 100 µM | TGI [44]: > 100 µM | TGI [45]: > 100 µM | TGI [46]: > 100 µM | TGI [47]: > 100 µM | TGI [48]: > 100 µM | TGI [49]: > 100 µM | TGI [58]: > 100 µM | TGI [50]: > 100 µM | TGI [51]: > 100 µM | TGI [52]: > 100 µM | TGI [53]: > 100 µM | TGI [54]: > 100 µM

Cn1c(=O)c2c(nc(-n3nc(-c4ccc(Cl)cc4)cc3N)n2C)n(C)c1=O
TGI [1]: > 100 µM | TGI [2]: > 100 µM | TGI [3]: > 100 µM | TGI [4]: > 100 µM | TGI [5]: > 100 µM | TGI [55]: > 100 µM | TGI [6]: > 100 µM | TGI [7]: > 100 µM | TGI [8]: > 100 µM | TGI [9]: > 100 µM | TGI [59]: > 100 µM | TGI [10]: > 100 µM | TGI [11]: > 100 µM | TGI [12]: > 100 µM | TGI [13]: 81.9 µM | TGI [56]: > 100 µM | TGI [14]: > 100 µM | TGI [15]: > 100 µM | TGI [16]: > 100 µM | TGI [17]: > 100 µM | TGI [18]: > 100 µM | TGI [20]: > 100 µM | TGI [21]: 83.2 µM | TGI [22]: > 100 µM | TGI [23]: > 100 µM | TGI [24]: > 100 µM | TGI [25]: > 100 µM | TGI [26]: > 100 µM | TGI [27]: > 100 µM | TGI [28]: > 100 µM | TGI [29]: > 100 µM | TGI [31]: > 100 µM | TGI [32]: > 100 µM | TGI [33]: > 100 µM | TGI [34]: > 100 µM | TGI [35]: > 100 µM | TGI [36]: > 100 µM | TGI [37]: > 100 µM | TGI [38]: > 100 µM | TGI [39]: > 100 µM | TGI [40]: > 100 µM | TGI [41]: 69.4 µM | TGI [42]: > 100 µM | TGI [43]: > 100 µM | TGI [57]: > 100 µM | TGI [44]: 91 µM | TGI [45]: > 100 µM | TGI [46]: > 100 µM | TGI [48]: > 100 µM | TGI [50]: > 100 µM | TGI [51]: > 100 µM | TGI [52]: > 100 µM | TGI [53]: > 100 µM | TGI [54]: > 100 µM

O=[N+]([O-])c1ccc(-c2csc3nc(-c4ccccc4)nn23)cc1
TGI [1]: > 100 µM | TGI [2]: > 100 µM | TGI [3]: > 100 µM | TGI [4]: > 100 µM | TGI [5]: > 100 µM | TGI [55]: > 100 µM | TGI [6]: > 100 µM | TGI [7]: > 100 µM | TGI [8]: > 100 µM | TGI [9]: > 100 µM | TGI [59]: > 100 µM | TGI [10]: > 100 µM | TGI [11]: > 100 µM | TGI [12]: > 100 µM | TGI [13]: > 100 µM | TGI [56]: > 100 µM | TGI [14]: > 100 µM | TGI [15]: > 100 µM | TGI [16]: > 100 µM | TGI [17]: > 100 µM | TGI [18]: > 100 µM | TGI [19]: > 100 µM | TGI [20]: > 100 µM | TGI [21]: > 100 µM | TGI [22]: > 100 µM | TGI [23]: > 100 µM | TGI [24]: > 100 µM | TGI [25]: > 100 µM | TGI [26]: > 100 µM | TGI [27]: > 100 µM | TGI [28]: > 100 µM | TGI [30]: > 100 µM | TGI [31]: > 100 µM | TGI [32]: > 100 µM | TGI [33]: > 100 µM | TGI [34]: > 100 µM | TGI [35]: > 100 µM | TGI [36]: > 100 µM | TGI [37]: > 100 µM | TGI [38]: > 100 µM | TGI [39]: > 100 µM | TGI [40]: > 100 µM | TGI [42]: > 100 µM | TGI [43]: > 100 µM | TGI [57]: > 100 µM | TGI [44]: > 100 µM | TGI [45]: > 100 µM | TGI [46]: > 100 µM | TGI [47]: > 100 µM | TGI [48]: > 100 µM | TGI [49]: > 100 µM | TGI [50]: > 100 µM | TGI [51]: > 100 µM | TGI [52]: > 100 µM | TGI [53]: > 100 µM | TGI [54]: > 100 µM
